Laboratory results as given in ChEMBL document CHEMBL1201862, “PubChem BioAssay data set” (2004).
Active and inactive are the calls of the source.

Assays:
[1] = viability loss of HMLE_sh_eGFP cells – cell-based, luminescence, counter-screen for HMLE_sh_ECad selective toxicity project, dose response (AID 463074); assay type: functional, Homo sapiens;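 further: HMLE human mammary epithelial cells expressing control shRNA against eGFP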
[2] = Luminescence Cell-Based Dose Retest to Confirm Inhibitors of Cancer Stem Cells. [Related pubchem assays (depositor defined):AID2717, AID2721]; assay type: functional; conditions: Homo sapiens
HEK293 = experiment: cells; assay type: functional, cell-based; conditions: Homo sapiens
[3] = molecular target: Nuclear receptor subfamily 0 group B member 1 (Homo sapiens, UniProt P51843); experiment: Luminescence-based cell-based high throughput dose response assay for inhibitors of the orphan nuclear receptor subfamily 0, group B, member 1 (DAX1; NR0B1). [Related pubchem assays (depositor defined):AID504766, AID504790]; assay type: functional
Chain of Nuclear receptor subfamily 0 group B member 1 (P51843 whole entry): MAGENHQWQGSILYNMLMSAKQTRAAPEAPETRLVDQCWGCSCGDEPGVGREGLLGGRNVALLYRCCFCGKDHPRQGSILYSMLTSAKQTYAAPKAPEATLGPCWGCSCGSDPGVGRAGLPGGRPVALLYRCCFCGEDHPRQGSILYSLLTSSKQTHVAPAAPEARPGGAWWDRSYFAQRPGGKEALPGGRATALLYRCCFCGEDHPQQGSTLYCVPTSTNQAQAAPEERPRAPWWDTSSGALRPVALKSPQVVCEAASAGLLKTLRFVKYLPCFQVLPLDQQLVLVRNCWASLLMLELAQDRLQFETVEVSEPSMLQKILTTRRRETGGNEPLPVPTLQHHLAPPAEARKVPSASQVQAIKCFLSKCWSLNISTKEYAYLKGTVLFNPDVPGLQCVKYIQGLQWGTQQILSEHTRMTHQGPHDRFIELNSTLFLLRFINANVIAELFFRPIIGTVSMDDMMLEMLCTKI

[4] = Luminescence Cell-Based Dose Response HTS to Identify Activators of Luciferase Translation or Activity in H4 […] Cells. [Related pubchem assays: 1829 (Project Summary), 1814 (Primary HTS)]; assay type: functional
H4 = experiment: Luminescence Cell-Based Dose Response HTS to Identify Activators of 5'UTR Stem-Loop Driven Prion Protein mRNA Translation in H4 Neuroglioblastoma Cells. [Related pubchem assays: 1829 (Project Summary), 1814 (Primary HTS)]; assay type: functional; conditions: Homo sapiens
A-375 [5] = experiment: proliferation inhibition in MITF-low A375 cells – cell-based, cherry-pick samples, set 2, counter-screen for MITF modulator project, dose response (AID 540335); assay type: functional; conditions: Homo sapiens
[6] = Luminescence Cell-Based Dose Confirmation HTS to Identify Activators of 5'UTR Stem-Loop Driven Alpha-Synuclein mRNA Translation in H4 Neuroglioblastoma Cells. [Related pubchem assays: 1829 (Project Summary), 1814 (Primary HTS)]; assay type: functional
A-375 [7] = experiment: MITF: Counter assay: A375 proliferation Measured in Cell-Based System Using Plate Reader - 2084-03_Inhibitor_Dose_DryPowder_Activity. [Related pubchem assays (depositor defined):AID488944]; assay type: functional; conditions: Homo sapiens
[8] = viability of uninfected HEp-2 cells – cell-based, HTS, cytotoxicity control for RSV inhibitor project, dose response (AID 2410); assay type: functional; conditions: human respiratory syncytial virus
Vero = experiment: cells; assay type: functional, cell-based; conditions: Chlorocebus sabaeus
BJ [9] = experiment: growth inhibition of engineered Ras-driven BJ cells – cell-based, alamar blue fluorescence, cherrypicked samples, dose response (AID 2631); assay type: functional; conditions: Homo sapiens;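 further: confirmatory dose-response assay in RAS-dependent BJ fibroblasts engineered with TERT, LT and ST, with cytotoxicity read by fluorescence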
[10] = HIV-1 AD8 envelope cell-cell fusion blockers – cherry-pick, dose response (AID 652062); assay type: functional, cell-based;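 further: luciferase signal from cell-cell fusion driven by HIV-1 clade B AD8 Env; potency is for inhibitors of fusion seen as a drop in luminescence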
BJ [11] = experiment: BJ-TERT fibroblast viability loss – cell-based, RAS-independent, luminescence, dose response (AID 1933); assay type: functional; conditions: Homo sapiens
[12] = loss of viability in HepG2 cells – cell-based, CellTiter-Glo, cherry-picked, cytotoxicity control for Shn3 inhibitor project, dose response (AID 624134); assay type: functional
[13] = reduction of Shn3 3'UTR-driven luciferase in osteoblasts – cell-based, Clone20 osteoblasts, firefly luciferase, cherry-picked, dose response (AID 624132); assay type: functional;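 further: firefly luciferase luminescence from reporter carrying the Shn3 3'UTR in osteoblasts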
BJ [14] = experiment: cells; assay type: functional, cell-based; conditions: Homo sapiens
[15] = off-target signal loss in HeLa-CEM21 co-culture – HeLa F-luc CTL cells, cherry-picked, counter-screen for HIV-1 Env fusion inhibitor project, dose response (AID 652040); assay type: functional, cell-based;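 further: potency for signal decrease marking cytotoxic or nonspecific inhibition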
[16] = general cell-killing toxicity readout – plate reader, dry powder samples, cytotoxicity control for PAX8 inhibitor project, dose response (AID 743021); assay type: functional, cell-based
[17] = toxicity toward HepG2 liver cells – cell-based, plate reader, cherry-pick, antagonist series, cytotoxicity control, dose response (AID 743416); assay type: functional
[18] = Luminescence Cell-Based Dose Confirmation HTS to Identify Inhibitors of Platelet Dense Granule Release. [Related pubchem assays: 1663 (Primary HTS), 1678 (Summary of Project)]; assay type: functional
[19] = viability loss in CEM21 cells – cell-based, CellTiter-Glo luminescence, cherry-picked, cytotoxicity control for viral fusion inhibitor project, dose response (AID 652042); assay type: functional;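 further: potency for signal decrease meaning cytotoxicity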
[20] = A549 cell cytotoxicity, dose response, cytotoxicity control, plate reader, cherry-pick, antagonist series (AID 743412); assay type: functional, cell-based
[21] = blockade of melanocortin 4 receptor signaling – cell-based, plate reader, cherry pick, counter-screen for LGR2 antagonist project, dose response (AID 743444); assay type: functional;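 further: transfected HEK 293 cells stimulated with alpha-MSH peptide; potency of inhibitors of the alpha-MSH evoked signal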
Paired box protein Pax-8 = Paired box protein Pax-8 (Homo sapiens, UniProt Q06710); experiment: PAX8 transcriptional activity inhibition in RMG-I – RMG-I cells, luciferase, cherry-pick, dose response (AID 687027); assay type: functional, cell-based;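 further: luciferase reporter driven by Pax8 target thyroperoxidase promoter measured by SteadyGlo luminescence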
Chain of Paired box protein Pax-8 (Q06710 whole entry, the tested form may be a part): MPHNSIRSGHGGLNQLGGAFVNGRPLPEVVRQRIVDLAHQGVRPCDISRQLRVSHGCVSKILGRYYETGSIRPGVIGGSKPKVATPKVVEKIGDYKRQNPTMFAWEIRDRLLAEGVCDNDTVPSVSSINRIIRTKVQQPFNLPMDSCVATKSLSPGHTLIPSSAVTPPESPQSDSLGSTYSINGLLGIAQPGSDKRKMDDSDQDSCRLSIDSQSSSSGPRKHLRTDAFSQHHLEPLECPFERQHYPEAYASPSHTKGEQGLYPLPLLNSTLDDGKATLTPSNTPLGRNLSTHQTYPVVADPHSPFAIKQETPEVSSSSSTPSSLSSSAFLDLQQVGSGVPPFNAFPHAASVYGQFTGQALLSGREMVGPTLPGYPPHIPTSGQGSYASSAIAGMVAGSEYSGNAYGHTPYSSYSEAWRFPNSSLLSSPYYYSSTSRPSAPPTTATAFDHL

[22] = blockers of HIV-1 ZM109 envelope-driven cell-cell fusion – HeLa effector, CEM target cells, luciferase, cherry-pick, dose response (AID 652058); assay type: functional, cell-based;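 further: luciferase signal from HIV-1 Env mediated cell-cell fusion of effector and target cells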
[23] = molecular target: Photoreceptor-specific nuclear receptor (Homo sapiens, UniProt Q9Y5X4); assay type: functional, cell-based;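 further: CHO-S cells with Gal4-NCOR and VP16-NR2E3 two-hybrid luciferase reporter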
Chain of Photoreceptor-specific nuclear receptor (Q9Y5X4 whole entry, the tested form may be a part): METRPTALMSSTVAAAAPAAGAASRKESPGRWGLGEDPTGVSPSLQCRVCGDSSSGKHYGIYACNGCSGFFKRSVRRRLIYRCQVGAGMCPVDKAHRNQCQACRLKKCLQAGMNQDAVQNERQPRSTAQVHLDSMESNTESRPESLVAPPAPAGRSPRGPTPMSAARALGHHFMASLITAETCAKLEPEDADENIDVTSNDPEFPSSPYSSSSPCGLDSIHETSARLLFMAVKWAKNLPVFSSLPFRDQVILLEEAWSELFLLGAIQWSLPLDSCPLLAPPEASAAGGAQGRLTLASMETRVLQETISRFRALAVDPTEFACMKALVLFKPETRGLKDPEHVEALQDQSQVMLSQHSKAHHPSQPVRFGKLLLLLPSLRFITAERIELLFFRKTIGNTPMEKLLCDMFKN

[24] = HEK-293T viability loss, compound-treated – cell-based, uHTS hits, cytotoxicity control for B/T-cell NF-kB inhibitor project, dose response (AID 489019); assay type: functional;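 further: IC50 reflects cytotoxicity as loss of cell viability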
Jurkat = experiment: blockers of NF-kB activation in T cells – Jurkat, luciferase reporter, luminescence, B- and T-cell, dose response (AID 489004); assay type: functional, cell-based; conditions: Homo sapiens;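 further: NF-kB luciferase reporter Jurkat cells stimulated with PMA plus ionomycin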
BJ [25] = experiment: BJ-TERT-LT-ST fibroblast viability loss – cell-based, RAS-independent, luminescence, dose response (AID 1935); assay type: functional; conditions: Homo sapiens;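 further: BJ fibroblasts immortalized with TERT plus LT and ST oncogenes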
[26] = DRD fibroblast viability loss – cell-based, non-viral oncogenic, luminescence, dose response (AID 1934); assay type: functional; conditions: Homo sapiens
INS1 = experiment: INS-1E survival protection against cytokine death – cell-based, luminescence, retest, dose response (AID 449756); assay type: functional; conditions: Rattus norvegicus;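 further: cell death triggered by IL-1 beta plus TNF-alpha plus IFN-gamma mixture; protective hits raise ATP signal compared with cytokine alone wells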
[27] = blockers of bursicon-stimulated LGR2 cAMP reporter – cell-based, HEK293, CRE-luciferase reporter, cherry pick, set 2, dose response (AID 743343); assay type: functional;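 further: transfected cells were stimulated with diluted bursicon conditioned medium after compound addition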
[28] = molecular target: Heat shock protein HSP 90-alpha (Homo sapiens, UniProt P07900); assay type: functional, organism-based
[29] = viability loss in HEK293 cells – cell-based, plate reader, cherry-picked samples, cytotoxicity control, dose response (AID 743446); assay type: functional
[30] = molecular target: Luciferin 4-monooxygenase (Photinus pyralis, UniProt P08659); experiment: inhibition of purified Photinus pyralis luciferase – biochemical, luminescence, dose response (AID 1891)
Chain of Luciferin 4-monooxygenase (P08659 whole entry, the tested form may be a part): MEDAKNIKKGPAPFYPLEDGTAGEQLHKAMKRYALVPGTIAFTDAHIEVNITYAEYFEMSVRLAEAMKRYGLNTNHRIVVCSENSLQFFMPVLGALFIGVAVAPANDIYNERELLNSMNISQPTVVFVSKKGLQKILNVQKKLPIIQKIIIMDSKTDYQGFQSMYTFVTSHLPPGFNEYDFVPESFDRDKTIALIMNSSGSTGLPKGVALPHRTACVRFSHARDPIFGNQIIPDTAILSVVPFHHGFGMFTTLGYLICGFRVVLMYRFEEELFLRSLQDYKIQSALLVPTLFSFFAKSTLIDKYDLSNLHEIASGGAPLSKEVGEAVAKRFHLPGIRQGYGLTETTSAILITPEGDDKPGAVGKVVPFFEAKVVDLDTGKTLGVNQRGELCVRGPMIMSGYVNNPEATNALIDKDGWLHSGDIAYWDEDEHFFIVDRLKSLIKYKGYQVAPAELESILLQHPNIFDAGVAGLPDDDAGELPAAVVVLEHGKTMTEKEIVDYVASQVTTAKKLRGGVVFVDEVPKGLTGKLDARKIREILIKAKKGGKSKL

[31] = blockers of HIV-1 envelope-mediated cell-cell fusion – cherry-pick, dose response (AID 652057); assay type: functional, cell-based

O=C(c1cc(-c2ccc(O)cc2)on1)N1CCN(c2ccccc2)CC1
active: AC50 [1] 23.1 µM | AC50 [2] 2.89 µM

Cc1cc(NC(=O)c2cc3cccc([N+](=O)[O-])c3[nH]2)ccc1F
inactive: IC50 (HEK293) > 67.5 µM | IC50 [3] > 67.5 µM

Cc1cnn(C(S)=NCCc2ccccc2)c1
active: EC50 [4] 25.4 µM | AC50 (A-375 [5]) > 35 µM | EC50 [6] 27.3 µM | AC50 (A-375 [7]) > 35 µM
> 120 µM (not active): EC50 (H4)

Cc1cccc(NC(=O)C(C)Sc2nc3ccccc3c(=O)n2CCCN2CCOCC2)c1 (stereo not drawn)
active: CC50 [8] 30.8 µM | IC50 (cells) 26.8 µM | IC50 (Vero) 23.4 µM

COc1ccccc1C(=O)Nc1nc2ccccc2[nH]1
inactive: EC50 (BJ [9]) > 133 µM | IC50 [24] > 80 µM
inconclusive: EC50 (BJ [11]) 0.802 µM | EC50 (BJ [14]) 0.607 µM | EC50 (BJ [25]) 1.83 µM
active: AC50 [10] 1.41 µM | AC50 [12] 6.57 µM | AC50 [13] 0.868 µM | AC50 [15] 2.57 µM | AC50 [16] 1.79 µM | AC50 [17] 6.26 µM | EC50 [18] 0.196 µM | AC50 [19] 1.71 µM | AC50 [20] 1.29 µM | AC50 [21] 0.253 µM | AC50 (Paired box protein Pax-8) 2.04 µM | AC50 [22] 6.08 µM | IC50 [23] 3.25 µM | IC50 (Jurkat) 0.57 µM | EC50 [26] 0.734 µM | AC50 (INS1) 1.69 µM | AC50 [27] 0.217 µM | AC50 [28] 0.555 µM | AC50 [29] 2.33 µM | EC50 [30] 0.159 µM | AC50 [31] 0.879 µM
